{
  "source": "patent US20050164945A1",
  "about": "“Endotheliase-1 ligands” (priority 2003, published 2005)",
  "key": {"[1]": {"tested_on": "ET-2", "sequence (Q9BYE2 326-559 limits assumed)": "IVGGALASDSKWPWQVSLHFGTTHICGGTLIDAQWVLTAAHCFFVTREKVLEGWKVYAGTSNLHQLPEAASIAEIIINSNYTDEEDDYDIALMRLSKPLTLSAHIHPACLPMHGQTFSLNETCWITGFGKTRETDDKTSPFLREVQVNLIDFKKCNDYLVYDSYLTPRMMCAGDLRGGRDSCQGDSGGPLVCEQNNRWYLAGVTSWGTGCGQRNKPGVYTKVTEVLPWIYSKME", "conditions": "for ET-2 estimated IC50: 30 minute preincubation with 100 nM Kunitz domain; for IC50: read-out: ET-2 estimated IC50, 30 minute preincubation with 100 nM Kunitz domain", "experimental": "(§1) Cloning into this vector placed a His-tag at the C-terminus of the protein that was used to facilitate purification.\n(§2) For protein production, E. coli containing the expression vector were grown in media containing ampicillin and 2% glucose to an OD600 of 0.5. At this time the cells were spun down and the media removed. The cell pellet was then resuspended in fresh media containing ampicillin and 1 mM IPTG to induce expression of the protein. The cells were allowed to grow with shaking overnight at 30° C. before harvesting by centrifugation. Periplasmic extracts were then prepared and the MBP-Kunitz fusion purified using immobilized metal ion chromatography."}, "[2]": {"target": "MTSP-1 (Homo sapiens, UniProt Q9Y5Y6)", "sequence (Q9Y5Y6 whole entry, species assumed, the tested form may be a part)": "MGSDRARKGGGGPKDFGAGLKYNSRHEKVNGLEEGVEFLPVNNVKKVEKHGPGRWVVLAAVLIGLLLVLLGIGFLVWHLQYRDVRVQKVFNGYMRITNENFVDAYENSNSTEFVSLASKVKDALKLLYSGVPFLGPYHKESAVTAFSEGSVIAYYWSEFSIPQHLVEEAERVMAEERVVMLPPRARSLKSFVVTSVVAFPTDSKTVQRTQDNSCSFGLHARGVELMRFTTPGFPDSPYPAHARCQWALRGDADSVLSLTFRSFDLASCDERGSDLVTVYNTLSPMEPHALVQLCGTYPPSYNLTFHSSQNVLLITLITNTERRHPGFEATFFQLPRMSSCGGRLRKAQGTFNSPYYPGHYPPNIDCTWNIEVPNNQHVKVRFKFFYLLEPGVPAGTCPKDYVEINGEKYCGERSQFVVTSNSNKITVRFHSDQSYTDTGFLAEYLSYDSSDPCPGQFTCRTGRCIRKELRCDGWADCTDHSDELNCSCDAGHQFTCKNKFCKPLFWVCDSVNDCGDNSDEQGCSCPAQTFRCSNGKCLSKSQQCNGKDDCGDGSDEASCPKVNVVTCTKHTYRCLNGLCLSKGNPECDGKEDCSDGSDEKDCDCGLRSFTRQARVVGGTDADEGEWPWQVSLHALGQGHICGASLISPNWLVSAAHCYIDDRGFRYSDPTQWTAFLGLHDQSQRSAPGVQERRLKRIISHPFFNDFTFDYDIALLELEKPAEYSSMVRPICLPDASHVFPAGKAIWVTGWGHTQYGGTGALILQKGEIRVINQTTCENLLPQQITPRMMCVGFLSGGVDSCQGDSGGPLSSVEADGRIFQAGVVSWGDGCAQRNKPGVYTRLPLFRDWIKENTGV", "conditions": "30 minute preincubation with 100 nM Kunitz domain", "experimental": "as §1, §2"}, "[3]": {"target": "TnIV (Homo sapiens, UniProt P35030)", "sequence (P35030 whole entry, the tested form may be a part)": "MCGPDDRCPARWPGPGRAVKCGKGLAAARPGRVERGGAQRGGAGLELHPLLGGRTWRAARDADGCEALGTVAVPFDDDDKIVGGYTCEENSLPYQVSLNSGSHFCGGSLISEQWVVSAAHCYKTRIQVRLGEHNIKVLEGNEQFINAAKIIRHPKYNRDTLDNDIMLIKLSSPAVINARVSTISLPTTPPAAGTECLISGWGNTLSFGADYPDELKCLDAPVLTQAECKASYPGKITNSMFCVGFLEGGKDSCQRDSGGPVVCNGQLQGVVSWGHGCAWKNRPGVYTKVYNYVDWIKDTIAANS", "conditions": "30 minute preincubation with 100 nM Kunitz domain", "experimental": "as §1, §2"}, "[4]": {"tested_on": "Trypsin", "conditions": "read-out: Trypsin estimated IC50, 30 minute preincubation with 100 nM Kunitz domain", "experimental": "as §1, §2"}, "[5]": {"target": "fXa (Homo sapiens, UniProt P00742)", "sequence (P00742 235-488 limits assumed)": "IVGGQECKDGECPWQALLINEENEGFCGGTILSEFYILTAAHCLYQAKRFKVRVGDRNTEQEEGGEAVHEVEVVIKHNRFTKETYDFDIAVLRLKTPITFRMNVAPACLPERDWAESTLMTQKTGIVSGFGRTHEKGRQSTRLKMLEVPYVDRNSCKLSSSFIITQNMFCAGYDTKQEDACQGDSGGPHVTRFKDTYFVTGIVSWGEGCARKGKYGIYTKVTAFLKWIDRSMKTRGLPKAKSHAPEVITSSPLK", "sequence (P00742 41-179 partner limits assumed)": "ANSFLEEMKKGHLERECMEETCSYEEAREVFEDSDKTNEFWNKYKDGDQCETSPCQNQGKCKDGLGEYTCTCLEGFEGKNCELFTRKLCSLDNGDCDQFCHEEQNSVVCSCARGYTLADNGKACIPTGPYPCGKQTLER", "conditions": "30 minute preincubation with 100 nM Kunitz domain", "experimental": "as §1, §2"}},
  "data": [
    {"sequence": "MAAEMHSFCAFKADQGPCRASVHRFFFNIFTRQCEEFFYGGCLGNQNRFESLEECKKMCTRDSASSASGDFD [MBP-1F8]", "values": [
      {"measurement": "ET-2 estimated IC50", "setting": "[1]", "result": "IA (IA = <5% inhibition @ 100 nM)"},
      {"measurement": "MTSP-1 estimated IC50", "setting": "[2]", "result": "IA (IA = <5% inhibition @ 100 nM)"},
      {"measurement": "TnIV estimated IC50", "setting": "[3]", "result": "IA (IA = <5% inhibition @ 100 nM)"},
      {"measurement": "IC50", "setting": "[4]", "result": "< 10", "unit": "nM"},
      {"measurement": "fXa estimated IC50", "setting": "[5]", "result": "IA (IA = <5% inhibition @ 100 nM)"}
    ]},
    {"sequence": "MAAEMHSFCAFKADKGFCRAMDIRFFFNIFTRQCEEFIYGGCGGNQNRFESLEECKKMCTRDSASSASGDFD [MBP-1B2]", "values": [
      {"measurement": "ET-2 estimated IC50", "setting": "[1]", "result": "IA (IA = <5% inhibition @ 100 nM)"},
      {"measurement": "MTSP-1 estimated IC50", "setting": "[2]", "result": "IA (IA = <5% inhibition @ 100 nM)"},
      {"measurement": "IC50", "setting": "[4]", "result": "< 10", "unit": "nM"},
      {"measurement": "fXa estimated IC50", "setting": "[5]", "result": "IA (IA = <5% inhibition @ 100 nM)"}
    ]},
    {"sequence": "MAAEMHSFCAFKADTGPCRADIKRFFFNIFTRQCEEFRYGGCMGNQNRFESLEECKKMCTRDSASSASGDFD [MBP-1G9]", "values": [
      {"measurement": "ET-2 estimated IC50", "setting": "[1]", "result": "IA (IA = <5% inhibition @ 100 nM)"},
      {"measurement": "TnIV estimated IC50", "setting": "[3]", "result": "IA (IA = <5% inhibition @ 100 nM)"},
      {"measurement": "IC50", "setting": "[4]", "result": "~60", "unit": "nM"},
      {"measurement": "fXa estimated IC50", "setting": "[5]", "result": "IA (IA = <5% inhibition @ 100 nM)"}
    ]},
    {"sequence": "MAAEMHSFCAFKADKGECRASVQRFFFNIFTRQCEEFNYGGCGGNQNRFESLEECKKMCTRDSASSASGDFD [MBP-D12]", "values": [
      {"measurement": "ET-2 estimated IC50", "setting": "[1]", "result": "IA (IA = <5% inhibition @ 100 nM)"},
      {"measurement": "MTSP-1 estimated IC50", "setting": "[2]", "result": "IA (IA = <5% inhibition @ 100 nM)"},
      {"measurement": "IC50", "setting": "[4]", "result": "~30", "unit": "nM"}
    ]},
    {"sequence": "MAAEMHSFCAFKADRGPCRADFHRFFFNIFTRQCEEFHYGGCGGNQNRFESLEECKKMCTRDSASSASGDFD [MBP-1A10]", "values": [
      {"measurement": "ET-2 estimated IC50", "setting": "[1]", "result": "IA (IA = <5% inhibition @ 100 nM)"},
      {"measurement": "IC50", "setting": "[4]", "result": "< 10", "unit": "nM"},
      {"measurement": "fXa estimated IC50", "setting": "[5]", "result": "IA (IA = <5% inhibition @ 100 nM)"}
    ]},
    {"sequence": "MAAEMHSFCAFKADPGPCRAMFNRFFFNIFTRQCEEFNYGGCSGNQNRFESLEECKKMCTRDSASSASGDFD [MBP-1E6]", "values": [
      {"measurement": "IC50", "setting": "[1]", "result": "~400", "unit": "nM"},
      {"measurement": "IC50", "setting": "[4]", "result": "< 10", "unit": "nM"},
      {"measurement": "fXa estimated IC50", "setting": "[5]", "result": "IA (IA = <5% inhibition @ 100 nM)"}
    ]},
    {"sequence": "MAAEMHSFCAFKADKGTCRGDFPRFFFNIFTRQCEEFHYGGCGGNQNRFESLEECKKMCTRDSASSASGDFD [MBP-1E9]", "values": [
      {"measurement": "ET-2 estimated IC50", "setting": "[1]", "result": "IA (IA = <5% inhibition @ 100 nM)"},
      {"measurement": "MTSP-1 estimated IC50", "setting": "[2]", "result": "IA (IA = <5% inhibition @ 100 nM)"},
      {"measurement": "IC50", "setting": "[4]", "result": "≥ 1000", "unit": "nM"},
      {"measurement": "fXa estimated IC50", "setting": "[5]", "result": "IA (IA = <5% inhibition @ 100 nM)"}
    ]},
    {"sequence": "MAAEMHSFCAFKADPGQCRAYYRRFFFNIFTRQCEEFVYGGCMGNQNRFESLEECKKMCTRDSASSASGDFD [MBP-1G2]", "values": [
      {"measurement": "IC50", "setting": "[1]", "result": "~300", "unit": "nM"},
      {"measurement": "MTSP-1 estimated IC50", "setting": "[2]", "result": "IA (IA = <5% inhibition @ 100 nM)"},
      {"measurement": "IC50", "setting": "[4]", "result": "< 10", "unit": "nM"}
    ]},
    {"sequence": "MAAEMHSFCAFKADTGTCRAAMVRFFFNIFTRQCEEFTYGGCEGNQNRFESLEECKKMCTRDSASSASGDFD [MBP-1H8]", "values": [
      {"measurement": "ET-2 estimated IC50", "setting": "[1]", "result": "IA (IA = <5% inhibition @ 100 nM)"},
      {"measurement": "MTSP-1 estimated IC50", "setting": "[2]", "result": "IA (IA = <5% inhibition @ 100 nM)"},
      {"measurement": "TnIV estimated IC50", "setting": "[3]", "result": "IA (IA = <5% inhibition @ 100 nM)"},
      {"measurement": "IC50", "setting": "[4]", "result": "~30", "unit": "nM"},
      {"measurement": "fXa estimated IC50", "setting": "[5]", "result": "IA (IA = <5% inhibition @ 100 nM)"}
    ]},
    {"sequence": "MAAEMHSFCAFKADRGPCRAYFDRFFFNIFTRQGEEFIYGGCMGNQNRFESLEECKKMCTRDSASSASGDFD [MBP-1G8]", "values": [
      {"measurement": "ET-2 estimated IC50", "setting": "[1]", "result": "IA (IA = <5% inhibition @ 100 nM)"},
      {"measurement": "MTSP-1 estimated IC50", "setting": "[2]", "result": "IA (IA = <5% inhibition @ 100 nM)"},
      {"measurement": "IC50", "setting": "[4]", "result": "~10", "unit": "nM"}
    ]},
    {"sequence": "MAAEMHSFCAFKADQGPCRAAISRFFFNIFTRQCEEFVYGGCEGNQNRFESLEECKKMCTRDSASSASGDFD [MBP-1D9]", "values": [
      {"measurement": "IC50", "setting": "[1]", "result": "≥ 1000", "unit": "nM"},
      {"measurement": "MTSP-1 estimated IC50", "setting": "[2]", "result": "IA (IA = <5% inhibition @ 100 nM)"},
      {"measurement": "IC50", "setting": "[4]", "result": "~50", "unit": "nM"},
      {"measurement": "fXa estimated IC50", "setting": "[5]", "result": "IA (IA = <5% inhibition @ 100 nM)"}
    ]},
    {"sequence": "MAAEMHSFCAFKADPGPCRAIMTRFFFNIFTRQCEEFRYGGCLGNQNRFESLEECKKMCTRDSASSASGDFD [MBP-1G11]", "values": [
      {"measurement": "IC50", "setting": "[1]", "result": "≥ 1000", "unit": "nM"},
      {"measurement": "MTSP-1 estimated IC50", "setting": "[2]", "result": "IA (IA = <5% inhibition @ 100 nM)"},
      {"measurement": "IC50", "setting": "[4]", "result": "< 10", "unit": "nM"}
    ]}
  ]
}
